Source: patent US11802120B2, “Fused cyclic urea derivatives as CRHR2 antagonist” (RaQualia Pharma Inc., priority 2018, dated 2023)

The compounds below were run against T1, human CRHR2-alpha (Homo sapiens, UniProt Q13324) (assay: cAMP functional assay for human CRHR2 (LANCE Ultra cAMP, TR-FRET)). Conditions: CHO-K1 cells expressing human CRHR2-alpha, agonist human urocortin2 at EC80, cAMP; read-out: IC50 against CRHR2.
T1 sequence (Q13324 1-411): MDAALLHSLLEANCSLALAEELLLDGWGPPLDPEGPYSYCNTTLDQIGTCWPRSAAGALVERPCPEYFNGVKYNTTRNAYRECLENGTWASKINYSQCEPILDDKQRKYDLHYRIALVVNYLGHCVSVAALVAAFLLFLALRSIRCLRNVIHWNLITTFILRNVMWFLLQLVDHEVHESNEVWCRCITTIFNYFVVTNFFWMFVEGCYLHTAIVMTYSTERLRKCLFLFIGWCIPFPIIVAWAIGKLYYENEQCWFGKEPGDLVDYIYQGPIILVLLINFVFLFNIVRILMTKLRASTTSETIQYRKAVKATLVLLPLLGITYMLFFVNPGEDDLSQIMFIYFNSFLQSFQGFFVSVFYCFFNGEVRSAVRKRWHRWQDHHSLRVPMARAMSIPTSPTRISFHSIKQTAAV
Format: cell-based
Procedure, shortened: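 First, starved and frozen CHO-K1 cells expressing the receptor are thawed into IBMX-containing HBSS buffer (pH 7.4). Next, compounds are added for 30 min at 25° C. Then agonist at EC80 (urocortin2 or CRF, per receptor) is added for another 30 min, followed by cAMP detection reagents.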

| Compound | IC50 [µM] |
| --- | --- |
| N#Cc1cc(F)ccc1-n1c(=O)n(C[C@H]2CC[C@H](NC(=O)c3cc(Cl)cnc3C(F)F)CC2)c2ccccc21 [Example 627, 5-chloro-N-((1r,4r)-4-((3-(2-cyano-4-fluorophenyl)-2-oxo-2,3-dihydro-1H-benzo[d]imidazol-1-yl)methyl)cyclohexyl)-2-(difluoromethyl)nicotinamide] | < 0.3 |
| CNc1ccc(-n2c(=O)n(C[C@H]3CC[C@H](NC(=O)c4cc(Cl)cnc4C(F)F)CC3)c3ccccc32)nc1 [Example 660, 5-chloro-2-(difluoromethyl)-N-((1r,4r)-4-((3-(5-(methylamino)pyridin-2-yl)-2-oxo-2,3-dihydro-1H-benzo[d]imidazol-1-yl)methyl)cyclohexyl)nicotinamide] | < 0.3 |
| CN(C)c1cc(-n2c(=O)n(C[C@H]3CC[C@H](NC(=O)c4cc(Cl)cnc4C(F)F)CC3)c3ccccc32)ccn1 [Example 650, 5-chloro-2-(difluoromethyl)-N-((1r,4r)-4-((3-(2-(dimethyl-amino)pyridin-4-yl)-2-oxo-2,3-dihydro-1H-benzo[d]imidazol-1-yl)methyl)cyclo-hexyl)nicotinamide] | < 0.3 |
| Cc1ncc(Cl)cc1C(=O)N[C@H]1CC[C@H](Cn2c(=O)n(-c3ccc(-c4c[nH]nn4)cc3)c3ccccc32)CC1 [Example 633, N-((1r,4r)-4-((3-(4-(1H-1,2,3-triazol-4-yl)phenyl)-2-oxo-2,3-dihydro-1H-benzo[d]imidazol-1-yl)methyl)cyclohexyl)-5-chloro-2-methylnicotinamide] | < 0.3 |
| O=C(N[C@H]1CC[C@H](Cn2c(=O)n(-c3ccc4c(c3)nnn4CCO)c3ccccc32)CC1)c1cc(Cl)cnc1C(F)F [Example 385, 5-chloro-2-(difluoromethyl)-N-((1r,4r)-4-((3-(1-(2-hydroxyethyl)-1H-benzo[d][1,2,3]triazol-5-yl)-2-oxo-2,3-dihydro-1H-benzo[d]imidazol-1-yl)methyl)cyclohexyl)nicotinamide] | < 0.3 |
| CNC(=O)c1cc(C)c(-n2c(=O)n(C[C@H]3CC[C@H](NC(=O)c4cc(Cl)cnc4C(F)F)CC3)c3ccccc32)cn1 [Example 363, 5-(3-(((1r,4r)-4-(5-chloro-2-(difluoromethyl)nicotinamido)cyclohexyl)methyl)-2-oxo-2,3-dihydro-1H-benzo[d]imidazol-1-yl)-N,4-dimethylpicolinamide] | < 0.3 |
| Cc1ncc(Cl)cc1C(=O)N[C@H]1CC[C@H](Cn2c(=O)n(-c3ccc(NCCC(F)F)nc3)c3ccccc32)CC1 [Example 480, 5-chloro-N-((1r,4r)-4-((3-(6-((3,3-difluoropropyl)amino)pyridin-3-yl)-2-oxo-2,3-dihydro-1H-benzo[d]imidazol-1-yl)methyl)cyclo-hexyl)-2-methylnicotinamide] | < 0.3 |
| C=Cc1cc(-n2c(=O)n(C[C@H]3CC[C@H](NC(=O)c4cc(Cl)cnc4C)CC3)c3ccccc32)ccn1 [Example 82, 5-chloro-2-methyl-N-((1r,4r)-4-((2-oxo-3-(2-vinylpyridin-4-yl)-2,3-dihydro-1H-benzo [d]imidazol-1-yl)methyl)cyclohexyl)nicotinamide] | < 0.3 |
| O=C(N[C@H]1CC[C@H](Cn2c(=O)n(-c3ccncc3Cl)c3ncccc32)CC1)c1cc(Cl)cnc1C(F)F [Example 496, 5-chloro-N-((1r,4r)-4-((3-(3-chloropyridin-4-yl)-2-oxo-2,3-dihydro-1H-imidazo[4,5-b]pyridin-1-yl)methyl)cyclohexyl)-2-(difluoromethyl)nicotinamide] | < 0.3 |
| Cc1ncc(Cl)cc1C(=O)N[C@H]1CC[C@H](Cn2c(=O)n(-c3ccc4c(c3)cc(C(=O)N(C)C)n4C)c3ccccc32)CC1 [Example 405, 5-(3-(((1r,4r)-4-(5-chloro-2-methylnicotinamido)cyclo-hexyl)methyl)-2-oxo-2,3-dihydro-1H-benzo[d]imidazol-1-yl)-N,N,1-trimethyl-1H-indole-2-carboxamide] | < 0.3 |
| CCC(=O)Nc1cc(C)c(-n2c(=O)n(C[C@H]3CC[C@H](NC(=O)c4cc(Cl)cnc4C(F)F)CC3)c3ccccc32)cn1 [Example 560, 5-chloro-2-(difluoromethyl)-N-((1r,4r)-4-((3-(4-methyl-6-propionamidopyridin-3-yl)-2-oxo-2,3-dihydro-1H-benzo [d]imidazol-1-yl)methyl)cyclo-hexyl)nicotinamide] | < 0.3 |
| Cc1ncc(Cl)cc1C(=O)N[C@H]1CC[C@H](Cn2c(=O)n(-c3ccc(-n4ccnn4)nc3)c3ccccc32)CC1 [Example 511, N-((1r,4r)-4-((3-(6-(1H-1,2,3-triazol-1-yl)pyridin-3-yl)-2-oxo-2,3-dihydro-1H-benzo[d]imidazol-1-yl)methyl)cyclohexyl)-5-chloro-2-methylnicotinamide] | < 0.3 |
| CNc1cc(C)c(-n2c(=O)n(C[C@H]3CC[C@H](NC(=O)c4cc(Cl)cnc4C(F)F)CC3)c3ccccc32)cn1 [Example 465, 5-chloro-2-(difluoromethyl)-N-((1r,4r)-4-((3-(4-methyl-6-(methylamino)pyridin-3-yl)-2-oxo-2,3-dihydro-1H-benzo[d]imidazol-1-yl)methyl)cyclohexyl)nicotinamide] | < 0.3 |
| Cn1cc(-c2cccc(-n3c(=O)n(C[C@H]4CC[C@H](NC(=O)c5cc(Cl)cnc5C(F)F)CC4)c4ccccc43)n2)cn1 [Example 657, 5-chloro-2-(difluoromethyl)-N-((1r,4r)-4-((3-(6-(1-methyl-1H-pyrazol-4-yl)pyridin-2-yl)-2-oxo-2,3-dihydro-1H-benzo[d]imidazol-1-yl)methyl)cyclohexyl)nicotinamide] | < 0.3 |
| Cc1ncc(Cl)cc1C(=O)N[C@H]1CC[C@H](Cn2c(=O)n(-c3cccc(-c4cnn(C)c4)n3)c3ccccc32)CC1 [Example 656, 5-chloro-2-methyl-N-((1r,4r)-4-((3-(6-(1-methyl-1H-pyrazol-4-yl)pyridin-2-yl)-2-oxo-2,3-dihydro-1H-benzo[d]imidazol-1-yl)methyl)cyclohexyl)nicotinamide] | < 0.3 |
| C[C@H](O)COc1ccc(-n2c(=O)n(C[C@H]3CC[C@H](NC(=O)c4cc(Cl)cnc4C(F)F)CC3)c3ccccc32)cn1 [Example 440, 5-chloro-2-(difluoromethyl)-N-((1S,4r)-4-((3-(6-((S)-2-hydroxypropoxy)pyridin-3-yl)-2-oxo-2,3-dihydro-1H-benzo[d]imidazol-1-yl)methyl)cyclohexyl)nicotinamide] | < 0.3 |
| Cc1ncc(Cl)cc1C(=O)N[C@H]1CC[C@H](Cn2c(=O)n(C3COc4ccccc4C3)c3ccccc32)CC1 (some centres unmarked) [Example 167, 5-chloro-N-((1r,4r)-4-((3-(chroman-3-yl)-2-oxo-2,3-dihydro-1H-benzo[d]imidazol-1-yl)methyl)cyclo-hexyl)-2-methylnicotinamide] | < 0.3 |
